These are literature values, as cited in publication PMC9655391 (International Journal of Molecular Sciences, 2022).

The conditions of the data set: oral administration; ref [16],[20],[21],[22].

As to `CCCCc1nc(Cl)c(CO)n1Cc1ccc(-c2ccccc2-c2nn[nH]n2)cc1` [LP, losartan potassium], the bioavailability (usually dose-corrected exposure relative to a reference, in per cent) is given as 32%.
